Experimental findings from patent US11802120B2, “Fused cyclic urea derivatives as CRHR2 antagonist” (RaQualia Pharma Inc., priority 2018, dated 2023) are described below.

Usually IC50 stands for the concentration needed to halve the response being measured.

A value given as a limit tells only on which side of the number the result lay.

For this test, the target named is T1, human CRHR2-alpha (Homo sapiens, UniProt Q13324).
T1 sequence (Q13324 1-411): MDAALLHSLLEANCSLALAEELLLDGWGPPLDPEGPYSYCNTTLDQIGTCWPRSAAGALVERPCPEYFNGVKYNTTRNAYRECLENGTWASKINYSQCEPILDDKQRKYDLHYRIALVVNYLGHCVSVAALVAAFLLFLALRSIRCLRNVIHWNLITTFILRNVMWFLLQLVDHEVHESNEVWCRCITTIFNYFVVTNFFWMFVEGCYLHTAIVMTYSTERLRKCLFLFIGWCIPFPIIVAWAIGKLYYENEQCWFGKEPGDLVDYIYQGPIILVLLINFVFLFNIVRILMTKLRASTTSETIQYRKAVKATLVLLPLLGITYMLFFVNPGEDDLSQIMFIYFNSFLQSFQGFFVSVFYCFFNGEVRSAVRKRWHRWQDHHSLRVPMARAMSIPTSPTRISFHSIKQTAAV
As to the kind of experiment: cAMP functional assay for human CRHR2 (LANCE Ultra cAMP, TR-FRET). Format: cell-based. The following applies: CHO-K1 cells expressing human CRHR2-alpha, agonist human urocortin2 at EC80, cAMP; read-out: IC50 against CRHR2. The procedure, abridged: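 Inhibition of agonist-driven cAMP was assessed in recombinant CHO-K1 cells at 25° C, using 30 min compound pretreatment and 30 min stimulation with EC80 human urocortin2 (CRHR2) or CRF (CRHR1). IC50 came from dose-response fitting.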
A general note: TR-FRET usually uses a lanthanide donor and a delayed reading to cut background.
As for `Cc1ncc(Cl)cc1C(=O)N[C@H]1CC[C@H](Cn2c(=O)n(-c3ccc(N(C)C)cn3)c3ccccc32)CC1` [Example 647, 5-chloro-N-((1r,4r)-4-((3-(5-(dimethylamino)pyridin-2-yl)-2-oxo-2,3-dihydro-1H-benzo [d]imidazol-1-yl)methyl)cyclo-hexyl)-2-methylnicotinamide], the IC50 was less than 300 nM.
Take `CN(C)c1ccc(-n2c(=O)n(C[C@H]3CC[C@H](NC(=O)c4cc(Cl)cnc4C(F)F)CC3)c3ccccc32)nc1` [Example 648, 5-chloro-2-(difluoromethyl)-N-((1r,4r)-4-((3-(5-(dimethyl-amino)pyridin-2-yl)-2-oxo-2,3-dihydro-1H-benzo[d]imidazol-1-yl)methyl)cyclo-hexyl)nicotinamide]: the IC50 was less than 300 nM.
Turning to `Cc1ncc(Cl)cc1C(=O)N[C@H]1CC[C@H](Cn2c(=O)n(-c3ccnc(N(C)C)c3)c3ccccc32)CC1` [Example 649, 5-chloro-N-((1r,4r)-4-((3-(2-(dimethylamino)pyridin-4-yl)-2-oxo-2,3-dihydro-1H-benzo[d]imidazol-1-yl)methyl)cyclohexyl)-2-methyl-nicotinamide], the IC50 is less than 300 nM.
As for `CN(C)c1cc(-n2c(=O)n(C[C@H]3CC[C@H](NC(=O)c4cc(Cl)cnc4C(F)F)CC3)c3ccccc32)ccn1` [Example 650, 5-chloro-2-(difluoromethyl)-N-((1r,4r)-4-((3-(2-(dimethyl-amino)pyridin-4-yl)-2-oxo-2,3-dihydro-1H-benzo[d]imidazol-1-yl)methyl)cyclo-hexyl)nicotinamide], the figure is less than 300 nM.
Then `Cc1ncc(Cl)cc1C(=O)N[C@H]1CC[C@H](Cn2c(=O)n(-c3cccc(-c4ccn(C)n4)c3)c3ccccc32)CC1` [Example 651, 5-chloro-2-methyl-N-((1r,4r)-4-((3-(3-(1-methyl-1H-pyrazol-3-yl)phenyl)-2-oxo-2,3-dihydro-1H-benzo [d]imidazol-1-yl)methyl)cyclohexyl)nicotinamide], with less than 300 nM; and `Cc1ncc(Cl)cc1C(=O)N[C@H]1CC[C@H](Cn2c(=O)n(-c3cncc(-c4ccn(C)n4)c3)c3ccccc32)CC1` [Example 652, 5-chloro-2-methyl-N-((1r,4r)-4-((3-(5-(1-methyl-1H-pyrazol-3-yl)pyridin-3-yl)-2-oxo-2,3-dihydro-1H-benzo[d]imidazol-1-yl)methyl)cyclohexyl)nicotinamide], with less than 300 nM; and `Cc1ncc(Cl)cc1C(=O)N[C@H]1CC[C@H](Cn2c(=O)n(-c3ccc(-c4ccn(C)n4)nc3)c3ccccc32)CC1` [Example 654, 5-chloro-2-methyl-N-((1r,4r)-4-((3-(6-(1-methyl-1H-pyrazol-3-yl)pyridin-3-yl)-2-oxo-2,3-dihydro-1H-benzo[d]imidazol-1-yl)methyl)cyclohexyl)nico-tinamide], with less than 300 nM.
As for `Cc1ncc(Cl)cc1C(=O)N[C@H]1CC[C@H](Cn2c(=O)n(-c3ccnc(-c4ccn(C)n4)c3)c3ccccc32)CC1` [Example 655, 5-chloro-2-methyl-N-((1r,4r)-4-((3-(2-(1-methyl-1H-pyrazol-3-yl)pyridin-4-yl)-2-oxo-2,3-dihydro-1H-benzo[d]imidazol-1-yl)methyl)cyclohexyl)nicotinamide], the figure is less than 300 nM.
With `Cc1ncc(Cl)cc1C(=O)N[C@H]1CC[C@H](Cn2c(=O)n(-c3cccc(-c4cnn(C)c4)n3)c3ccccc32)CC1` [Example 656, 5-chloro-2-methyl-N-((1r,4r)-4-((3-(6-(1-methyl-1H-pyrazol-4-yl)pyridin-2-yl)-2-oxo-2,3-dihydro-1H-benzo[d]imidazol-1-yl)methyl)cyclohexyl)nicotinamide], the IC50 was less than 300 nM.
Then `Cn1cc(-c2cccc(-n3c(=O)n(C[C@H]4CC[C@H](NC(=O)c5cc(Cl)cnc5C(F)F)CC4)c4ccccc43)n2)cn1` [Example 657, 5-chloro-2-(difluoromethyl)-N-((1r,4r)-4-((3-(6-(1-methyl-1H-pyrazol-4-yl)pyridin-2-yl)-2-oxo-2,3-dihydro-1H-benzo[d]imidazol-1-yl)methyl)cyclohexyl)nicotinamide], with less than 300 nM.
Then `NC(=O)Nc1ccc(-n2c(=O)n(C[C@H]3CC[C@H](NC(=O)c4cc(Cl)cnc4C(F)F)CC3)c3ccccc32)cn1` [Example 658, 5-chloro-2-(difluoromethyl)-N-((1r,4r)-4-((2-oxo-3-(6-ureidopyridin-3-yl)-2,3-dihydro-1H-benzo[d]imidazol-1-yl)methyl)cyclohexyl)nicotinamide], with less than 300 nM; and `CN(C)c1cccc(-n2c(=O)n(C[C@H]3CC[C@H](NC(=O)c4cc(Cl)cnc4C(F)F)CC3)c3ccccc32)n1` [Example 659, 5-chloro-2-(difluoromethyl)-N-((1r,4r)-4-((3-(6-(dimethyl-amino)pyridin-2-yl)-2-oxo-2,3-dihydro-1H-benzo[d]imidazol-1-yl)methyl)cyclo-hexyl)nicotinamide], with less than 300 nM.
As for `CNc1ccc(-n2c(=O)n(C[C@H]3CC[C@H](NC(=O)c4cc(Cl)cnc4C(F)F)CC3)c3ccccc32)nc1` [Example 660, 5-chloro-2-(difluoromethyl)-N-((1r,4r)-4-((3-(5-(methylamino)pyridin-2-yl)-2-oxo-2,3-dihydro-1H-benzo[d]imidazol-1-yl)methyl)cyclohexyl)nicotinamide], the concentration for half-maximal inhibition (IC50) was less than 300 nM.
As for `CNc1cc(-n2c(=O)n(C[C@H]3CC[C@H](NC(=O)c4cc(Cl)cnc4C(F)F)CC3)c3ccccc32)ccn1` [Example 661, 5-chloro-2-(difluoromethyl)-N-((1r,4r)-4-((3-(2-(methylamino)pyridin-4-yl)-2-oxo-2,3-dihydro-1H-benzo[d]imidazol-1-yl)methyl)cyclohexyl)nicotinamide], the figure is less than 300 nM; as for `CNc1cccc(-n2c(=O)n(C[C@H]3CC[C@H](NC(=O)c4cc(Cl)cnc4C(F)F)CC3)c3ccccc32)n1` [Example 662, 5-chloro-2-(difluoromethyl)-N-((1r,4r)-4-((3-(6-(methylamino)pyridin-2-yl)-2-oxo-2,3-dihydro-1H-benzo[d]imidazol-1-yl)methyl)cyclohexyl)nicotinamide], less than 300 nM; as for `CN(C)c1cc(-n2c(=O)n(C[C@H]3CC[C@H](NC(=O)c4cc(Cl)cnc4C(F)(F)F)CC3)c3ccccc32)ccn1` [Example 663, 5-chloro-N-((1r,4r)-4-((3-(2-(dimethylamino)pyridin-4-yl)-2-oxo-2,3-dihydro-1H-benzo[d]imidazol-1-yl)methyl)cyclohexyl)-2-(trifluoromethyl)nicotinamide], less than 300 nM.
Take `COCCNc1ccc(-n2c(=O)n(C[C@H]3CC[C@H](NC(=O)c4cc(Cl)cnc4C(F)(F)F)CC3)c3ccccc32)cn1` [Example 664, 5-chloro-N-((1r,4r)-4-((3-(6-((2-methoxyethyl)amino)pyridin-3-yl)-2-oxo-2,3-dihydro-1H-benzo[d]imidazol-1-yl)methyl)cyclohexyl)-2-(trifluoromethyl)nicotinamide]: the IC50 is less than 300 nM.
Regarding `CNc1cc(-n2c(=O)n(C[C@H]3CC[C@H](NC(=O)c4cc(Cl)cnc4C(F)(F)F)CC3)c3ccccc32)ccn1` [Example 665, 5-chloro-N-((1r,4r)-4-((3-(2-(methylamino)pyridin-4-yl)-2-oxo-2,3-dihydro-1H-benzo[d]imidazol-1-yl)methyl)cyclohexyl)-2-(trifluoromethyl)nicotinamide], the concentration for half-maximal inhibition (IC50) is less than 300 nM.
Then `O=C(N[C@H]1CC[C@H](Cn2c(=O)n(-c3cnc4c(ccn4CCO)c3)c3ccccc32)CC1)c1cc(Cl)cnc1C(F)F` [Example 666, 5-chloro-2-(difluoromethyl)-N-((1r,4r)-4-((3-(1-(2-hydroxyethyl)-1H-pyrrolo[2,3-b]pyridin-5-yl)-2-oxo-2,3-dihydro-1H-benzo[d]imidazol-1-yl)methyl)cyclohexyl)nicotinamide], with less than 300 nM; and `Cc1ncc(Cl)cc1C(=O)N[C@H]1CC[C@H](Cn2c(=O)n(-c3ccc(-c4c[nH]cn4)cc3)c3ccccc32)CC1` [Example 667, N-((1r,4r)-4-((3-(4-(1H-imidazol-4-yl)phenyl)-2-oxo-2,3-dihydro-1H-benzo[d]imidazol-1-yl)methyl)cyclohexyl)-5-chloro-2-methylnicotinamide], with less than 300 nM; and `CNc1ccc(-n2c(=O)n(C[C@H]3CC[C@H](NC(=O)c4cc(Cl)cnc4C)CC3)c3c(F)cccc32)cn1` [Example 668, 5-chloro-N-((1r,4r)-4-((7-fluoro-3-(6-(methylamino)pyridin-3-yl)-2-oxo-2,3-dihydro-1H-benzo[d]imidazol-1-yl)methyl)cyclo-hexyl)-2-methylnicotinamide], with less than 300 nM.
Then `CC(C)(O)C(=O)Nc1ccc(-n2c(=O)n(C[C@H]3CC[C@H](NC(=O)c4cc(Cl)cnc4C(F)F)CC3)c3ccccc32)cn1` [Example 669, 5-chloro-2-(difluoromethyl)-N-((1r,4r)-4-((3-(6-(2-hydroxy-2-methylpropana-mido)pyridin-3-yl)-2-oxo-2,3-dihydro-1H-benzo[d]imidazol-1-yl)methyl)cyclo-hexyl)nicotinamide], with less than 300 nM; and `C[C@H](O)C(=O)Nc1ccc(-n2c(=O)n(C[C@H]3CC[C@H](NC(=O)c4cc(Cl)cnc4C(F)F)CC3)c3ccccc32)cn1` [Example 671, 5-chloro-2-(difluoromethyl)-N-((1S,4r)-4-((3-(6-((S)-2-hydroxypropanamido)pyridin-3-yl)-2-oxo-2,3-dihydro-1H-benzo[d]imidazol-1-yl)methyl)cyclohexyl)nicotinamide], with less than 300 nM.
